Results reported in ChEMBL document CHEMBL2150960 (ACS Med Chem Lett, 2010).

What was measured:
LLC-PK1 = test: Ratio of permeability from basolateral to apical side to apical to basolateral side of pig LLC-PK1 cells expressing P-gp; format: ADME, cell-based, Sus scrofa
PXR (NR1I2) = target: T1, PXR (NR1I2) (Homo sapiens, UniProt O75469); test: Activity at PXR at 10 uM relative to rifampicin; details: read-out: Activity
T1 sequence (O75469 whole entry): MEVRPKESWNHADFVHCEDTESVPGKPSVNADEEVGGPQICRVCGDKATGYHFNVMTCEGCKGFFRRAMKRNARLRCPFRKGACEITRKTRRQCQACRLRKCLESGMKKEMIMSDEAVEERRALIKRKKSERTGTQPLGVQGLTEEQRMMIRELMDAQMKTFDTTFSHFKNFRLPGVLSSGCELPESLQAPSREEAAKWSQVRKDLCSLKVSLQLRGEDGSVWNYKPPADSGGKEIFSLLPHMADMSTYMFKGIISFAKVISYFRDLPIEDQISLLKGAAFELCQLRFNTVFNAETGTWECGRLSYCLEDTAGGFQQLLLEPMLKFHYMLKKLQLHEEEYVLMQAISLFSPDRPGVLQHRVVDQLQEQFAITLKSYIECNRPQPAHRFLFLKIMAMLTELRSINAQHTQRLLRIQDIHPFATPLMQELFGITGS

[1] = Antagonist activity at L-type calcium channel by FLIPR assay; format: functional
[2] = Antagonist activity at depolarized T-type calcium channel by FLIPR assay; format: functional
[3] = Binding affinity to T-type calcium channel
P-gp = test: Permeability across pig LLC-PK1 cells expressing P-gp; format: ADME, cell-based, Sus scrofa
Rattus norvegicus [4] = test: Anticonvulsant activity in WAG/Rij rat assessed as inhibition of seizure at 3 mg/kg, po measured after 4 hrs; format: functional
[5] = Ratio of IC50 for hyperpolarized T-type calcium channel to IC50 for depolarized T-type calcium channel
[6] = Antagonist activity at hyperpolarized T-type calcium channel by FLIPR assay; format: functional
[7] = target: Voltage-gated inwardly rectifying potassium channel KCNH2 (Homo sapiens, UniProt Q12809); test: Displacement of […] from human ERG in HEK293 cells; format: cell-based
[8] = Half life in rat at 10 mg/kg; format: ADME, organism-based; parameters: dose 10 mg/kg; details: in vivo
[9] = Bioavailability in rat at 10 mg/kg; format: ADME, organism-based; details: in vivo
[10] = Systemic clearance in rat at 10 mg/kg; format: ADME, organism-based; parameters: dose 10 mg/kg; details: in vivo
[11] = Systemic clearance in dog at 10 mg/kg; format: ADME, organism-based, Canis lupus familiaris; parameters: dose 10 mg/kg; details: in vivo
[12] = Half life in dog at 10 mg/kg; format: ADME, organism-based, Canis lupus familiaris; parameters: dose 10 mg/kg; details: in vivo
[13] = Plasma protein binding in rat assessed as fraction unbound at 5 uM; format: ADME, cell-free
[14] = Plasma protein binding in dog assessed as fraction unbound at 5 uM; format: ADME, cell-free, Canis lupus familiaris
[15] = Volume of distribution at steady state in dog at 10 mg/kg; format: ADME, organism-based, Canis lupus familiaris; parameters: dose 10 mg/kg; details: in vivo, read-out: Vdss
Liver microsomes [16] = test: Covalent protein binding in human liver microsomes assessed as GSH adduct formation measured per mg protein at 10 uM after 60 mins in presence of NADPH by NMR spectroscopy; format: ADME, Microsome; details: 1 h
[17] = Volume of distribution at steady state in rat at 10 mg/kg; format: ADME, organism-based; parameters: dose 10 mg/kg; details: in vivo, read-out: Vdss
[18] = Bioavailability in dog at 10 mg/kg; format: ADME, organism-based, Canis lupus familiaris; details: in vivo
[19] = target: Voltage-gated potassium channel, IKs; KCNQ1(Kv7.1)/KCNE1(MinK) (Homo sapiens, UniProt P51787+P15382); test: Inhibition of IKs; format: protein-complex assay
[20] = Half life in rat at 5 mg/kg, po; format: ADME, organism-based; parameters: dose 5 mg/kg, route oral; details: in vivo
Rattus norvegicus [21] = test: Effect on sleep wake cycle in rat assessed as suppression of active wake time at 5 mg/kg, po administered daily 30 mins before inactive phase; format: functional
[22] = Inhibition of Sodium channel; details: concentration not given here
[23] = Inhibition of L-type calcium channel at 30 uM
[24] = Plasma protein binding in human assessed as fraction unbound at 5 uM; format: ADME, cell-free
[25] = target: T2, Voltage-dependent T-type calcium channel subunit alpha-1I (Homo sapiens, UniProt Q9P0X4); test: Antagonist activity at Cav3.3 at -100 mV holding potential by whole cell patch clamp analysis; format: functional
[26] = Plasma protein binding in rhesus monkey assessed as fraction unbound at 5 uM; format: ADME, Macaca mulatta
[27] = target: T2, Voltage-dependent T-type calcium channel subunit alpha-1I; test: Antagonist activity at Cav3.3 at -80 mV holding potential by whole cell patch clamp analysis; format: functional
Rattus norvegicus [28] = test: Effect on sleep wake cycle in po dosed rat assessed as increase in delta sleep administered daily 30 mins before inactive phase measured 0.5 to 2 hrs post administration; format: functional, organism-based
[29] = Half life in rhesus monkey at 10 mg/kg; format: ADME, organism-based, Macaca mulatta; parameters: dose 10 mg/kg; details: in vivo
hERG (KCNH2) = hERG (KCNH2) (Homo sapiens, UniProt Q12809); test: Inhibition of human ERG at 30 uM
[30] = Apparent terminal half life in human at 20 mg, po; format: ADME, organism-based; details: in vivo, read-out: betat1/2(app) (converted)
[31] = Systemic clearance in rhesus monkey at 10 mg/kg; format: ADME, organism-based, Macaca mulatta; parameters: dose 10 mg/kg; details: in vivo
Liver microsomes [32] = test: Covalent protein binding in human liver microsomes assessed per mg protein at 10 uM after 60 mins in presence of NADPH by NMR spectroscopy; format: ADME, Microsome; details: 1 h
[33] = Cmax in human at 20 mg, po; format: ADME, organism-based; parameters: dose 20 mg, route oral; details: in vivo
[34] = Volume of distribution at steady state in rhesus monkey at 10 mg/kg; format: ADME, organism-based, Macaca mulatta; parameters: dose 10 mg/kg; details: in vivo, read-out: Vdss
[35] = Bioavailability in rhesus monkey at 10 mg/kg; format: ADME, organism-based, Macaca mulatta; details: in vivo

Chain of Voltage-gated inwardly rectifying potassium channel KCNH2 (Q12809 whole entry): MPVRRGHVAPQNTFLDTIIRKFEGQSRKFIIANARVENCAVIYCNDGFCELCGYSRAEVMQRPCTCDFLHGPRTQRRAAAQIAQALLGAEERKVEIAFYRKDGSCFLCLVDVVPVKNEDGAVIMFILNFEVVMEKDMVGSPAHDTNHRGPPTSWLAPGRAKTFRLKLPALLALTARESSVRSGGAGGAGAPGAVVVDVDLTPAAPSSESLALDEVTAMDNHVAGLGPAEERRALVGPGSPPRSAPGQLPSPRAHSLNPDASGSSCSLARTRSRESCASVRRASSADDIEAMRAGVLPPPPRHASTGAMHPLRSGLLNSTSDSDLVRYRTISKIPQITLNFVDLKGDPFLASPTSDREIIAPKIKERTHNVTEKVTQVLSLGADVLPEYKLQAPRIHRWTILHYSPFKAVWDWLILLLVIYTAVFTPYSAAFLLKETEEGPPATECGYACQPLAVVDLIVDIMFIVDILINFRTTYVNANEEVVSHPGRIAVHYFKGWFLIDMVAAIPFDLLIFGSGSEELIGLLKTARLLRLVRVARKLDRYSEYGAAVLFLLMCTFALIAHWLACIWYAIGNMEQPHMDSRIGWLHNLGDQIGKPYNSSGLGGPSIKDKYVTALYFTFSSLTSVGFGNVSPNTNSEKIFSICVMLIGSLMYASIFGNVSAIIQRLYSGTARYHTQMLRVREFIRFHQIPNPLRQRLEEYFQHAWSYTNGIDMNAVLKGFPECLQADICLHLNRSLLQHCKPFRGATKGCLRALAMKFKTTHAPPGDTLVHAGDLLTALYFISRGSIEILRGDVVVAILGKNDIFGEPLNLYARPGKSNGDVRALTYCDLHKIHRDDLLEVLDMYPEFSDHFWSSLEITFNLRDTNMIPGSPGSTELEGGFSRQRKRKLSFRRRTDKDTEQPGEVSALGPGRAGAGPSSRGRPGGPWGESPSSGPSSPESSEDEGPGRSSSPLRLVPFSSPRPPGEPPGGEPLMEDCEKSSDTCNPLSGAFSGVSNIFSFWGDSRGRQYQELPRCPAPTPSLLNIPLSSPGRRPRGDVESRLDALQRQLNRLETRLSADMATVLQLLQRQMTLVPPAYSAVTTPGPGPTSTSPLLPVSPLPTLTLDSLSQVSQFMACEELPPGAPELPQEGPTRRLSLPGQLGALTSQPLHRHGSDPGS
T2 sequence (Q9P0X4 whole entry): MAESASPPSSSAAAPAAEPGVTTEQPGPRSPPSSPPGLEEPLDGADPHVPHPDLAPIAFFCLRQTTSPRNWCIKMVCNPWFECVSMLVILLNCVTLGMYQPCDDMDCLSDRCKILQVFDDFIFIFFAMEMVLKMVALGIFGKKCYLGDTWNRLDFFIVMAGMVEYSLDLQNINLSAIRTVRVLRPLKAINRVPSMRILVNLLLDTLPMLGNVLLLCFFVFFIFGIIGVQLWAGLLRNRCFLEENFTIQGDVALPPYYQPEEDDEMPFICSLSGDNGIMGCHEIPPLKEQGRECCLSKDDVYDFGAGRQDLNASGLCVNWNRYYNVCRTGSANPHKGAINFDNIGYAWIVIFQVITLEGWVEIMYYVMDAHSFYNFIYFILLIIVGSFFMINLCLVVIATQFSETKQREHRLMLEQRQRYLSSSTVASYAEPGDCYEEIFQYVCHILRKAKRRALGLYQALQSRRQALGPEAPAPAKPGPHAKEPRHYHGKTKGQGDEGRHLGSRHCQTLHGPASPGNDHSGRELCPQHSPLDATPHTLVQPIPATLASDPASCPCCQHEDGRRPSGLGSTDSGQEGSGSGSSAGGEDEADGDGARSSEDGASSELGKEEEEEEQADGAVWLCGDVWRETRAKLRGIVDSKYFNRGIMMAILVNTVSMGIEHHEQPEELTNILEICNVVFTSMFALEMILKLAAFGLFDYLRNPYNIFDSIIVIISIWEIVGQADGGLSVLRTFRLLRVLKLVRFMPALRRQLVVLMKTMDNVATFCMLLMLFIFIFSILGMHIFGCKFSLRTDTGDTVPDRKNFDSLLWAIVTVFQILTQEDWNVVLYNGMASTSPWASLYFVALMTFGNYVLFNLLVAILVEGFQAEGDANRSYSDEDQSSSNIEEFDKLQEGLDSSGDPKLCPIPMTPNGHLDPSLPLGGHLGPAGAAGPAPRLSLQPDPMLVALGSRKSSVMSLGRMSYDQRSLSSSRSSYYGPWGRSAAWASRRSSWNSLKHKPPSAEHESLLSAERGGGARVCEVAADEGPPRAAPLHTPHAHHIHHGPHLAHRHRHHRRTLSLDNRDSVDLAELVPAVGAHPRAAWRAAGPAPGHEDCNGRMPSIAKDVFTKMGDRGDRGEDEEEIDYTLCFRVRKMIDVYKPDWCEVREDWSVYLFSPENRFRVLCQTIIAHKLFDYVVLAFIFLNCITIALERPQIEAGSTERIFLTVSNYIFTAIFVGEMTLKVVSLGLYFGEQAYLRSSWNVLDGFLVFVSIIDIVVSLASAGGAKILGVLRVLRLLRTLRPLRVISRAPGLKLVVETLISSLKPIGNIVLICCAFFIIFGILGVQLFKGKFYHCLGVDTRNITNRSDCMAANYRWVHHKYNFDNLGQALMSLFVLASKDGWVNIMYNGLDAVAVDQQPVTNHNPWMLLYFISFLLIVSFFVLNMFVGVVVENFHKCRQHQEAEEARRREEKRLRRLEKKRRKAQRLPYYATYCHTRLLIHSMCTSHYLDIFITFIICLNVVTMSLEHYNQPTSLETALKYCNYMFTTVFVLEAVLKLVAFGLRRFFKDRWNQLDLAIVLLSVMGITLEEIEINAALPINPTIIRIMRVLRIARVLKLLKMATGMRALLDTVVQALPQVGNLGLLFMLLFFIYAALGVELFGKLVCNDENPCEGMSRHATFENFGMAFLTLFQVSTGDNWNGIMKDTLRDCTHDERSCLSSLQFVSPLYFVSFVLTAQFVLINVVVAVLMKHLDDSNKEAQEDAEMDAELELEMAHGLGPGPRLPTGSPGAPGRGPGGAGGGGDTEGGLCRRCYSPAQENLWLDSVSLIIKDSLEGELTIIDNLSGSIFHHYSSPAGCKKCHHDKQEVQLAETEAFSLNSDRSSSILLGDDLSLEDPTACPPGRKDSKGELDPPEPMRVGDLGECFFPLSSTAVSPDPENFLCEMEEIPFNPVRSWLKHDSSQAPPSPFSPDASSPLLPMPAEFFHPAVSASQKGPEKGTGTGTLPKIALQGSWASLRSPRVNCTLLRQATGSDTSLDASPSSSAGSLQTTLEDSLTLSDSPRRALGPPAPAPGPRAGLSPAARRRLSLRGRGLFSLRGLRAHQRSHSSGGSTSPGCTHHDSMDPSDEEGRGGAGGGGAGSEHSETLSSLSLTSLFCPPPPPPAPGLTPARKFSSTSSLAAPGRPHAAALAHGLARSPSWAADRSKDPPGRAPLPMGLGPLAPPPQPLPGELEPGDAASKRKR
Chain of hERG (KCNH2) (Q12809 whole entry): as the sequence (Q12809 whole entry) above

| Ratio (LLC-PK1) | activity at 10 µM (PXR (NR1I2)) [%] | IC50 [1] [nM] | IC50 [2] [nM] | Ki [3] [nM] | Papp (P-gp) [×10⁻⁶ cm/s] | Ratio IC50 [5] | IC50 [6] [nM] | half-life [8] [min] | bioavailability [9] [%] | clearance [10] [mL/min/kg] | clearance [11] [mL/min/kg] | half-life [12] [min] | fraction unbound at 5 µM [13] | fraction unbound at 5 µM [14] | Vd [15] [L/kg] | PB (Liver microsomes [16]) [pmol] | Vd [17] [L/kg] | SMILES | inhibition in vivo at 3 mg/kg (Rattus norvegicus [4]) [%] | IC50 [7] [nM] | also measured |
| --- | --- | --- | --- | --- | --- | --- | --- | --- | --- | --- | --- | --- | --- | --- | --- | --- | --- | --- | --- | --- | --- |
| 0.7 | 17 | > 10000 | 9.4 | 1.2 | 45 | > 80 | 384 | – | – | – | – | – | – | – | – | – | – | C[C@@H](NC(=O)Cc1ccc(C2CC2)cc1)c1ccc(OCC(F)(F)F)cn1 | 87 | > 10000 | – |
| – | 31 | > 10000 | 3.7 | 0.3 | 41 | – | 249 | – | – | – | – | – | – | – | – | – | – | C[C@@H](NC(=O)Cc1ccc(N2CC[C@H](F)C2)cc1)c1ccc(OCC(F)(F)F)cn1 | – | – | – |
| 1.1 | 7 | > 10000 | 5.3 | 0.2 | 35 | > 80 | 206 | 24 | 100 | 35 | 3.6 | 66 | 0.052 | 0.016 | 0.3 | 1558 | 1.1 | Cc1ncoc1-c1ccc(CC(=O)N[C@H](C)c2ccc(OCC(F)(F)F)cn2)cc1 | 72 | > 30000 | bioavailability [18]: 50% |
| 1.3 | 0 | > 10000 | 5.4 | – | 38 | > 80 | 397 | – | – | – | – | – | – | – | – | 244 | – | C[C@@H](NC(=O)Cc1ccc(-c2cnn3ncccc23)cc1)c1ccc(OCC(F)(F)F)cn1 | 85 | > 30000 | – |
| 1.3 | 8 | > 10000 | 31.3 | 5.5 | 44 | > 80 | 1920 | 14.4 | 71 | 30.3 | 11.8 | 48.6 | 0.123 | 0.155 | 0.36 | – | 0.59 | Cc1nccnc1-c1ccc(CC(=O)N[C@H](C)c2ccc(OCC(F)(F)F)cn2)cc1 | 87 | > 30000 | inhibition (INH) [19]: Not Active; half-life [20]: 14 min; Time (Rattus norvegicus [21]): 1.5 h; inhibition [22]: 20%; inhibition [23]: 12%; fraction unbound at 5 µM [24]: 0.032; IC50 [25]: 12000 nM; fraction unbound at 5 µM [26]: 0.146; IC50 [27]: 264 nM; Activity (Rattus norvegicus [28]): Dose-dependent effect; half-life [29]: 31.8 min; inhibition at 30 µM (hERG (KCNH2)): 41%; half-life [30]: 180 min; clearance [31]: 19.3 mL/min/kg; PB (Liver microsomes [32]): 8 pmol; Cmax [33]: 1820 nM; Vd [34]: 0.74 L/kg; bioavailability [35]: 5%; bioavailability [18]: 23% |
